One experiment deals with T1, CB2 receptor (Rattus norvegicus, UniProt Q9QZN9).
T1 construct: from tissue; host or cells: rat spleen membranes
T1 sequence (Q9QZN9 1-360): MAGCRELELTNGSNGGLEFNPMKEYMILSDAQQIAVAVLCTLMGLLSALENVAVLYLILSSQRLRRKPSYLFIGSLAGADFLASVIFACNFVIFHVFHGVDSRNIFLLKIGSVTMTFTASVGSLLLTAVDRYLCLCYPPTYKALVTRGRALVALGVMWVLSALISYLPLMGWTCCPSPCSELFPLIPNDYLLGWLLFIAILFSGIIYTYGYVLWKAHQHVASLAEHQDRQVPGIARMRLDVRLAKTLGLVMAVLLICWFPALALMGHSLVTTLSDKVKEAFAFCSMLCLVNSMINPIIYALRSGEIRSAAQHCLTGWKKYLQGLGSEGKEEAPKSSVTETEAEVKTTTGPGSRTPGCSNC
Briefly: [3H]CP55940 binding assay, CB2 receptor (rat spleen membrane). Conditions: [3H]CP55940 0.5 nmol/L, 25° C. 1 hour. The protocol: Cannabinoid CB1 and CB2 receptor-binding activities
The assay was performed according to a method of Hillard et al. (The Journal of Pharmacology and Experimental Therapeutics, vol. 289, p. 1427 (1999)). A rat forebrain membrane sample was prepared for use in the binding assay for CB1 receptor, and a rat spleen membrane sample was prepared for use in the binding assay for CB2 receptor. Each membrane sample (forebrain: final concentration of 0.5 mg·protein/mL, spleen: final concentration of 2 mg·protein/mL) together with each test compound and [^3H]CP55940 ((−)-cis-3-[2-hydroxy-[3,5-^3H]-4-(1,1-dimethylheptyl)-phenyl]-trans-4-(3-hydroxypropyl)cyclohexanol, manufactured by PerkinElmer, final concentration of 0.5 nmol/L), was incubated at 25° C. for 1 hour in the assay buffer solution (50 mmol/L Tris-HCl buffer solution (pH 7.4), 1 mmol/L EDTA and 3 mmol/L MgCl2) containing 0.1% bovine serum albumin. Then, the mixture was filtered through a glass filter GF/C (manufactured by Whatman) pretreated with 1% polyethyleneimine. After the glass filter was washed with the assay buffer solution containing 0.2% bovine serum albumin, the radioactivity on the glass filter was measured using a liquid scintillation counter (TRI-CARB 2700TR, manufactured by Packard). The nonspecific binding amount was defined as a binding amount in the presence of 10 μmol/L […] ((R)-(+)-[2,3-dihydro-5-methyl-3-(4-morpholinylmethyl)-pyrrolo[1,2,3-de]-1,4-benzoxazin-6-yl]-1-naphthalenylmethanone, manufactured by Tocris). The specific binding amount was presented as the difference between the total binding amount and the nonspecific binding amount. The 50% inhibitory concentration (IC50 value) of the test compound in the specific binding was determined. The Ki value of the test compound was calculated from this IC50 value and the Kd value for [^3H]CP55940 binding.

A further experiment concerns the target T2, human CB2 receptor (Homo sapiens, UniProt P34972).
T2 construct: expressed in transfected cells
The experiment in a line: GTPγS binding assay via human CB2 receptor. It counts as biochemical. The note with it: membrane of human CB2 receptor stably expressing CHO-K1 cells; for pEC50: read-out: EC50 value (agonist activity, [35S]GTPγS binding); for Emax: read-out: Emax value (maximum effect relative to CP55940 set to 100%). The procedure:
GTPγS binding assay via human CB2 receptor
The assay was performed according to a method of Hillard et al. (The Journal of Pharmacology and Experimental Therapeutics, vol. 289, p. 1427 (1999)). For use as a membrane sample, a membrane fraction was prepared from human CB2 receptor stably expressing CHO-K1 cells (Nature, vol. 365, pp. 61-65 (1993)). The membrane sample (final concentration of 40 μg·protein/mL) together with each test compound and [^35S]GTPγS (manufactured by PerkinElmer, final concentration of 0.05 nmol/L), was incubated at 30° C. for 1 hour in the assay buffer solution (50 mmol/L Tris-HCl buffer solution (pH 7.4), 100 mmol/L NaCl, 1 mmol/L EDTA, 3 mmol/L MgCl2 and 0.1% bovine serum albumin) containing 20 μmol/L guanosine 5′-diphosphate (GDP). Then, the mixture was filtered through a glass filter GF/B (manufactured by Whatman). After the glass filter was washed with the assay buffer solution, the radioactivity on the glass filter was measured using a liquid scintillation counter (TRI-CARB 2700TR, manufactured by Packard). The nonspecific binding amount was defined as a binding amount in the presence of 10 μmol/L GTPγS. The specific binding amount was presented as the difference between the total binding amount and the nonspecific binding amount. The increase rate of the specific binding amount in the presence of the test compound relative to the specific binding amount in the absence of the test compound was defined as agonist activity of the test compound. The concentration which gives 50% of the maximum effect of the test compound (EC50 value) was calculated by nonlinear regression analysis of the concentration-response curve. The percentage of the maximum effect of the test compound (Emax value) was calculated based on the maximum effect of CP55940 (manufactured by Tocris) measured simultaneously set to 100%.

Experiment [1] concerns rats with chronic constriction nerve injury. The experiment in a line: Analgesic effect in rats with chronic constriction nerve injury (von Frey filament). The class given is in vivo, rat. Conditions: orally administered, dose of 50 mg/kg or less, one hour after administration, von Frey filaments. The source says:
Analgesic Effect of Compounds in Rats with Chronic Constriction Nerve Injury
Rats with chronic constriction nerve injury were produced by partially modifying the method of Mosconi and Kruger et al. (Pain, vol. 64, pp. 37-57 (1996)).
Male Crl:CD(SD) rats were used for the experiments. Under pentobarbital anesthesia, the sciatic nerve of the left hind limb of the rat was exfoliated, and the exfoliated region was wrapped with a polyethylene tube (trade name: Intramedic, size: PE-60, manufactured by Becton Dickinson and Company) of 2 mm in length. On days 14 to 21 after the surgery, the rats were placed in an acrylic connected cage with a wire mesh floor (900 mm (length)×210 mm (depth)×140 mm (height)) consisting of 4 cages connected in a row and allowed to acclimate to the environment for at least 20 minutes, and then, the pain was evaluated.
The von Frey filament (trade name: touch test sensory evaluator, Model number: model 58011, manufactured by Muromachi Kikai) was used to evaluate pain, and the results were calculated as a pain threshold. That is, by using a von Frey filament of different stimulus intensity, stimulation was given to the plantar surface of the injured side of rats with chronic constriction nerve injury, and the stimulus intensity to cause paw withdrawal response was obtained. Then, the 50% pain threshold (Paw withdrawal threshold) (g) was calculated by the up down method of Dixon [Annual Review of Pharmacology and Toxicology, vol. 20, pp. 441-462 (1980)].
In the evaluation of the test compound, rats with 50% pain threshold of less than 4 g were used, and the test compound was dissolved in a 0.5% aqueous methyl cellulose solution and orally administered at a dose of 5 mL/kg. One hour after the administration, the pain threshold was measured using von Frey filaments.

pEC50, pKi: −log10 of the molar value.

In general, pKi refers to the negative decadic logarithm of the Ki, by convention in mol/L. As a reminder, the pEC50 is the EC50 on a negative log10 scale, so that one unit is a factor of ten. For orientation: Emax means the greatest response seen or fitted, relative to the assay's reference.

T2 sequence (P34972 whole entry): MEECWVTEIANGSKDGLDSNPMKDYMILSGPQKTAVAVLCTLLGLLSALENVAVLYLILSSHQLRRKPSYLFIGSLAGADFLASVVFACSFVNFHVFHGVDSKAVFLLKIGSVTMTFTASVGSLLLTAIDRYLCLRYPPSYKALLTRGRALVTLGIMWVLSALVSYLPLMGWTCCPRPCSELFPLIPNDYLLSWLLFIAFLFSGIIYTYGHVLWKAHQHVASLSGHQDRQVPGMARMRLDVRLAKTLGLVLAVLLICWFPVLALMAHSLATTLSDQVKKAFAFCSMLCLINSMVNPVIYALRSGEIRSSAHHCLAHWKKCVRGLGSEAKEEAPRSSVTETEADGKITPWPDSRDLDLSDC

The compound `CCN(CC)C(=O)c1ccn2c(CC3CCCCC3)c(C(C)(C)C)nc2c1` [Compound 1, 2-tert-Butyl-3-cyclohexylmethyl-N,N-diethylimidazo[1,2-a]-pyridine-7-carboxamide] had a pKi at CB2 receptor of over 6.00. Further, on human CB2 receptor, the negative-log EC50 (pEC50) was over 6.00 and the Emax was over 30%.

The compound `CCN(CC)C(=O)c1ccn2c(CC3CCOCC3)c(C(C)(C)C)nc2c1` [Compound 2, 2-tert-Butyl-N,N-diethyl-3-(tetrahydropyran-4-ylmethyl)-imidazo[1,2-a]pyridine-7-carboxamide] gave a pKi at CB2 receptor of over 6.00. Further, on human CB2 receptor, the negative-log EC50 (pEC50) was over 6.00 and the Emax is over 30%. Also, the “50% pain threshold (Paw withdrawal threshold)” value (from here on “50% pain threshold”) in experiment [1] is “significantly increased the pain threshold”.

`CCN(CC)C(=S)c1ccn2c(CC3CCOCC3)c(C(C)(C)C)nc2c1` [Compound 8, 2-tert-Butyl-N,N-diethyl-3-(tetrahydropyran-4-ylmethyl)-imidazo[1,2-a]pyridine-7-carbothioamide] showed a negative-log Ki (pKi) at CB2 receptor of over 6.00. Further, at human CB2 receptor, the pEC50 is over 6.00 and the Emax is over 30%.

`CCN(CC)C(=O)c1cc2nc(C(C)(C)C)c(CC3CCCCC3)n2cn1` [Compound 14, 2-tert-Butyl-3-cyclohexylmethyl-N,N-diethyl-imidazo[1,2-c]-pyrimidine-7-carboxamide] gave a negative logarithm of the Ki (pKi) at CB2 receptor of over 6.00. For the same compound, on human CB2 receptor, the negative logarithm of the EC50 (pEC50) is over 6.00 and the maximum response (Emax) is over 30%.

Take `CCN(CC)C(=O)c1cc2nc(C(C)(C)C)c(CC3CCOCC3)n2cn1` [Compound 15, 2-tert-Butyl-N,N-diethyl-3-(tetrahydropyran-4-ylmethyl)-imidazo[1,2-c]pyrimidine-7-carboxamide]: at CB2 receptor, the negative-log Ki (pKi) was over 6.00. Also, on human CB2 receptor, the pEC50 is over 6.00 and the Emax is over 30%. For the same compound, the “50% pain threshold” value in experiment [1] is listed as “significantly increased the pain threshold”.

Take `CCN(CC)C(=S)c1cc2nc(C(C)(C)C)c(CC3CCOCC3)n2cn1` [Compound 16, 2-tert-Butyl-N,N-diethyl-3-(tetrahydropyran-4-ylmethyl)-imidazo[1,2-c]pyrimidine-7-carbothioamide]: at CB2 receptor, the negative-log Ki (pKi) is over 6.00. Also, on human CB2 receptor, the negative logarithm of the EC50 (pEC50) was over 6.00 and the Emax was over 30%.

For the compound `CC(C)N(C)C(=O)c1ccn2c(CC3CCOCC3)c(C(C)(C)C)nc2c1` [Compound 17, 2-tert-Butyl-N-isopropyl-N-methyl-3-(tetrahydropyran-4-ylmethyl)-imidazo[1,2-a]pyridine-7-carboxamide], the negative-log Ki (pKi) at CB2 receptor was over 6.00. On human CB2 receptor, the negative logarithm of the EC50 (pEC50) was over 6.00 and the maximum response (Emax) is over 30%. For the same compound, the “50% pain threshold” value in experiment [1] is recorded as “significantly increased the pain threshold”.

At CB2 receptor, `CC(C)CN(C)C(=O)c1ccn2c(CC3CCOCC3)c(C(C)(C)C)nc2c1` [Compound 18, 2-tert-Butyl-N-isobutyl-N-methyl-3-(tetrahydropyran-4-ylmethyl)imidazo[1,2-a]pyridine-7-carboxamide] had a pKi of over 6.00. On human CB2 receptor, the pEC50 is over 6.00 and the maximal effect (Emax) was over 30%. Also, in experiment [1], the “50% pain threshold” value is recorded as “significantly increased the pain threshold”.

Compound `CCN(CC)C(=O)c1ccn2c(CC3CCCCO3)c(C(C)(C)C)nc2c1` (centres unmarked) [Compound 27, 2-tert-Butyl-N,N-diethyl-3-(tetrahydropyran-2-ylmethyl)-imidazo[1,2-a]pyridine-7-carboxamide] had a negative-log Ki (pKi) at CB2 receptor of over 6.00.

Source of the values: US8236841B2, “Fused heterocycle derivative” (Kyowa Hakko Kirin Co., Ltd., priority 2006, dated 2012).
